{"source": "ChEMBL document CHEMBL1201862", "about": "“PubChem BioAssay data set” (2004)", "key": {"[1]": {"target": "Glutathione-S-transferase (Schistosoma japonicum, UniProt Q26513)", "sequence (Q26513 whole entry)": "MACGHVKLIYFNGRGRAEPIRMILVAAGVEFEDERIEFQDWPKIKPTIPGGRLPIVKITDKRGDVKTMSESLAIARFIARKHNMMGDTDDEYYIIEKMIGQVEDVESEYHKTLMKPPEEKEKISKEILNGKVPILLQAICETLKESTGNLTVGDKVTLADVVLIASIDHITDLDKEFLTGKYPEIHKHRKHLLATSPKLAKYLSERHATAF", "experiment": "biotin-GST/anti-GST TR-FRET signal inhibitors, dose response, artefact control for Vif-APOBEC3G degradation inhibitor project, biochemical (AID 1117362)", "assay_type": "functional"}, "[2]": {"experiment": "THP-1 cell cytotoxicity, dose response, cytotoxicity control for Vif-APOBEC3G degradation inhibitor project, THP-1 cells (AID 1117359)", "assay_type": "functional", "conditions": "Human immunodeficiency virus 1, THP-1"}, "[3]": {"target": "T1, COUP transcription factor 2 (Homo sapiens, UniProt P24468)", "T1 sequence (P24468 whole entry)": "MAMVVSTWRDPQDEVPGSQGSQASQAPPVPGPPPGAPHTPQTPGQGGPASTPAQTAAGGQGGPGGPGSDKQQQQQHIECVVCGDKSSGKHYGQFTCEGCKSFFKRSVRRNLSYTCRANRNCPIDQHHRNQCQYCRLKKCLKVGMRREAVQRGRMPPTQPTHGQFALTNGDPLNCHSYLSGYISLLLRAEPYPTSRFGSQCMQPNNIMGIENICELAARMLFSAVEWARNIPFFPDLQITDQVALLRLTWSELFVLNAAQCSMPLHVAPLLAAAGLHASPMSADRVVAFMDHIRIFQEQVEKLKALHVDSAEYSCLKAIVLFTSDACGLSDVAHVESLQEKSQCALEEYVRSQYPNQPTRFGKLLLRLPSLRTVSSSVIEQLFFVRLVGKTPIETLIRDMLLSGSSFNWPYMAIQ", "experiment": "Luminescence-based cell-based high throughput dose response assay to identify inhibitors of COUP-TFII (NR2F2).", "assay_type": "functional"}, "INS1": {"test_system": "INS1", "experiment": "beta cell apoptosis inhibitors, cytokine rescue, dose response, luminescence, retest (AID 449756);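 note: cell death triggered by IL-1 beta plus TNF-alpha plus IFN-gamma mixture; protective hits raise ATP signal compared with cytokine alone wells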", "assay_type": "functional, cell-based", "conditions": "Rattus norvegicus"}, "HEK293": {"test_system": "HEK293", "experiment": "inhibitors of LMP1-driven NF-kB reporter, dose response, cell-based, HEK293, luciferase, cherry-pick (AID 588343)", "assay_type": "functional, Homo sapiens", "conditions": "Homo sapiens, HEK293"}, "Transthyretin": {"target": "Transthyretin (Homo sapiens, UniProt P02766)", "experiment": "Luminescence-based cell-based high throughput dose response assay to identify activators of Transthyretin (TTR) transcription.", "assay_type": "functional"}, "H4 [4]": {"test_system": "H4", "experiment": "Inhibitors of Prion Protein 5' UTR mRNA Measured in Cell-Based System Using Plate Reader - 2078-01_Inhibitor_Dose_DryPowder_Activity. [Related pubchem assays (depositor defined):AID488894]", "assay_type": "functional", "conditions": "Homo sapiens"}, "[5]": {"experiment": "cytotoxicity dependent on PAX8, dose response, cell-based, plate reader, dry powder (AID 743049)", "assay_type": "functional"}, "Paired box protein Pax-8": {"target": "Paired box protein Pax-8 (Homo sapiens, UniProt Q06710)", "sequence (Q06710 whole entry)": "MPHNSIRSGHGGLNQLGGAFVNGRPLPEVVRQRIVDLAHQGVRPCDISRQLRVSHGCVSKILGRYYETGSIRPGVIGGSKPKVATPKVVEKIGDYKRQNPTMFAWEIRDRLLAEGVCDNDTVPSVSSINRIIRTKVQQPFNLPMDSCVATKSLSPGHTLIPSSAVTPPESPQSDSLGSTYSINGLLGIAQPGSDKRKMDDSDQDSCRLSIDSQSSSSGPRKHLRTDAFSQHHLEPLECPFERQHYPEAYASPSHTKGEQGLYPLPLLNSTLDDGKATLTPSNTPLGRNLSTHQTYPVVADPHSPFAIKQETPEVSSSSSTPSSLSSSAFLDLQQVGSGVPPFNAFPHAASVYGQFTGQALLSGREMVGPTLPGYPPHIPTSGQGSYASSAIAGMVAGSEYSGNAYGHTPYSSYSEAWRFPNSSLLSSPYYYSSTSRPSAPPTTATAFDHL", "experiment": "inhibitors of PAX8-driven TPO luciferase reporter, dose response, RMG-I cells, cherry-pick (AID 687027);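 note: luciferase reporter driven by Pax8 target thyroperoxidase promoter measured by SteadyGlo luminescence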", "assay_type": "functional, cell-based"}, "[6]": {"experiment": "cytotoxicity in HEK-293T cells, dose response, cytotoxicity control for BCR NF-kB inhibitor project, luminescence, B-cell screen hits (AID 489021);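 note: cells exposed to compound for about 14 hours before viability readout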", "assay_type": "functional, cell-based"}, "[7]": {"experiment": "cytotoxicity in COV362 ovarian cancer cells, dose response, cytotoxicity control for PAX8 inhibitor project, cell-based, plate reader, dry powder, SA12 (AID 743144)", "assay_type": "functional"}, "[8]": {"experiment": "inhibitors of firefly luciferase expression or activity, dose response, H4 neuroglioma cells, luminescence (AID 1990)", "assay_type": "functional, cell-based"}, "[9]": {"experiment": "Shn3 3'UTR reporter inhibitors, dose response, cell-based, Clone20 osteoblasts, firefly luciferase, cherry-picked (AID 624132)", "assay_type": "functional"}, "[10]": {"experiment": "luciferase reporter signal reduction – luminescence, H4-C neuroglioblastoma cells, dose response (AID 2458);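 note: H4 neuroglioblastoma cells stably carrying a luciferase reporter gene fusion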", "assay_type": "functional, cell-based"}, "[11]": {"experiment": "inhibitors of SNCA 5'UTR-driven translation, confirmation, luminescence, H4 neuroglioblastoma cells, dose confirmation (AID 2454);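 note: H4 neuroglioblastoma cells carrying an alpha-synuclein 5'UTR luciferase reporter; potency for inhibition of the luciferase signal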", "assay_type": "functional, cell-based"}, "[12]": {"experiment": "PAX2 cell-based inhibition, dose response, selectivity assay for PAX8 inhibitor project, plate reader, dry powder samples (AID 743048);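 note: HEK293 cells carrying a WT1 promoter luciferase reporter driven by expressed Pax2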", "assay_type": "functional"}, "H4 [13]": {"test_system": "H4", "experiment": "inhibitors of control reporter signal in H4 cells – cell-based, plate reader, dry powder samples, counter-screen for prion reporter project, dose response (AID 540255)", "assay_type": "functional", "conditions": "Homo sapiens"}, "[14]": {"experiment": "reduction of Shn3 3'UTR firefly luciferase signal, dose response, Schnurri-3 inhibitor project, cell-based, Clone20 osteoblasts, cherry-pick, set 2 (AID 720490)", "assay_type": "functional"}, "[15]": {"experiment": "PAX5 activity inhibitors, dose response, selectivity assay for PAX8 inhibitor project, cell-based, plate reader, dry powder samples (AID 743047);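 note: HEK293 cells carrying a Pax5 driven CD19 promoter luciferase reporter; potency of inhibitors that lower reporter luminescence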", "assay_type": "functional"}, "[16]": {"experiment": "Luminescence-based counterscreen assay for KLF5 inhibitors: dose response cell-based high throughput screening assay to identify cytotoxic compounds using the IEC-6 intestinal epithelial cell line. [Related pubchem assays: 1700 (Primary screen.), 1834 (Confirmation screen.), 1858 (Summary AID.), 1905 (Counterscreen.)]", "assay_type": "functional"}, "[17]": {"experiment": "Luminescence Cell-Based Dose Response HTS to Identify Inhibitors of 5'UTR Stem-Loop Driven Prion Protein mRNA Translation in H4 Neuroglioblastoma Cells. [Related pubchem assays: 1827 (Project Summary), 1813 (Primary HTS)]", "assay_type": "functional"}, "[18]": {"experiment": "inhibitors of SNCA 5'UTR-driven reporter translation, confirmation, H4 neuroglioma cells, luminescence (AID 1988)", "assay_type": "functional, cell-based"}, "cells": {"experiment": "cells", "assay_type": "functional, cell-based"}, "[19]": {"experiment": "A549 cell cytotoxicity, dose response, cytotoxicity control, CellTiter-Glo luminescence, dry powder, set 5 (AID 743158)", "assay_type": "functional, cell-based"}, "[20]": {"experiment": "HEK293 cell cytotoxicity, dose response, cytotoxicity control, ATP luminescence, dry powder, set 3 (AID 743131)", "assay_type": "functional, cell-based"}, "[21]": {"experiment": "HepG2 cell cytotoxicity, dose response, cytotoxicity control, ATP luminescence, dry powder, set 2 (AID 743129)", "assay_type": "functional, cell-based"}, "[22]": {"target": "T2, Oxysterols receptor LXR-beta (Homo sapiens, UniProt P55055)", "T2 sequence (P55055 whole entry)": "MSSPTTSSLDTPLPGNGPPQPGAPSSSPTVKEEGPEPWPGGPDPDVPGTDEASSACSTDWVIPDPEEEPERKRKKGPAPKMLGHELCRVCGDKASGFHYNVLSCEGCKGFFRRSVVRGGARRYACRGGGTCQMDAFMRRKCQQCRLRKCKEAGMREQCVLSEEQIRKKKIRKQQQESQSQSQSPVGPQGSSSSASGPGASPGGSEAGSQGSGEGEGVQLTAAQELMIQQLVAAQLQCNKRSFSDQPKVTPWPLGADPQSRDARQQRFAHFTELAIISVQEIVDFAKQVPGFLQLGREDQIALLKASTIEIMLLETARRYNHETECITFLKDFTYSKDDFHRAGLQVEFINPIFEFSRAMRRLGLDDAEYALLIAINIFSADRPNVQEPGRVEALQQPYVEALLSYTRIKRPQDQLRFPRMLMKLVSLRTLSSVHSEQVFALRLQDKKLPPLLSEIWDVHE", "experiment": "LXR agonists, Gal4 luciferase reporter, dose response, counter-screen for ssDAF-12 agonist project, cell-based, luminescence, HEK293, S. stercoralis campaign (AID 720737)", "assay_type": "functional", "conditions": "read-out: IC50 (the source's name)"}, "[23]": {"experiment": "Luminescence-based cell-based high throughput dose response assay to identify activators of the DAF-12 from the parasite S. stercoralis (ssDAF-12).", "assay_type": "functional"}, "[24]": {"experiment": "NIH:OVCAR-3 ovarian cancer cell cytotoxicity, dose response, PAX8 inhibitor project, plate reader, dry powder samples (AID 743044)", "assay_type": "functional, cell-based"}, "[25]": {"experiment": "A2780 ovarian cancer cell cytotoxicity, dose response, cytotoxicity control, plate reader, dry powder samples (AID 743046)", "assay_type": "functional, cell-based"}, "[26]": {"experiment": "cytotoxicity in OVCAR8 ovarian cancer cells, dose response, PAX8 project, cell-based, plate reader, dry powder samples (AID 743197)", "assay_type": "functional", "conditions": "OVCAR-8"}, "[27]": {"experiment": "non-specific cell cytotoxicity, dose response, cytotoxicity control for PAX8 inhibitor project, plate reader, dry powder samples (AID 743021)", "assay_type": "functional, cell-based"}, "[28]": {"experiment": "IOSE-T80 ovarian epithelial cell cytotoxicity, dose response, cytotoxicity control for PAX8 inhibitor project, plate reader, dry powder samples (AID 743045)", "assay_type": "functional, cell-based"}, "[29]": {"experiment": "growth inhibition of intracellular T. cruzi, dose response, cell-based, plate reader, dry powder samples (AID 651845)", "assay_type": "functional"}, "[30]": {"experiment": "T. cruzi intracellular amastigote growth inhibition, dose response, imaging, CA-I/72 strain, bovine embryo skeletal muscle, dry powder (AID 651885)", "assay_type": "functional, cell-based"}, "[31]": {"experiment": "T. cruzi growth inhibition in host cells, dose response, cell-based, plate reader, dry powder, set 2 (AID 652275)", "assay_type": "functional"}}, "note": "The source made the active and inactive calls.", "data": [{"smiles": "Cc1cccc2cc(-c3ccccc3)c(-c3ccccc3)c[n+]12", "values": [{"measurement": "IC50", "setting": "[1]", "result": "18.7 µM (active)"}, {"measurement": "CC50", "setting": "[2]", "result": "12.2 µM (active)"}, {"measurement": "IC50", "setting": "[3]", "result": "8.22 µM (active)"}, {"measurement": "AC50", "setting": "INS1", "result": "4.26 µM (active)"}]}, {"smiles": "COc1ccc2cc3c(N)nn(C(=O)c4ccccc4[N+](=O)[O-])c3nc2c1", "values": [{"measurement": "AC50", "setting": "HEK293", "result": "2.75 µM (active)"}, {"measurement": "EC50", "setting": "Transthyretin", "result": "> 167 µM (inactive)"}]}, {"smiles": "O=C(CN1C(=O)c2ccccc2S1(=O)=O)c1ccc(Cl)cc1Cl", "values": [{"measurement": "AC50", "setting": "H4 [4]", "result": "168 nM (active)"}, {"measurement": "AC50", "setting": "[5]", "result": "88.1 µM (active)"}, {"measurement": "AC50", "setting": "Paired box protein Pax-8", "result": "2.93 µM (active)"}, {"measurement": "IC50", "setting": "[6]", "result": "> 80 µM (inactive)"}, {"measurement": "AC50", "setting": "[7]", "result": "93.5 µM (active)"}, {"measurement": "EC50", "setting": "[8]", "result": "310 nM (active)"}, {"measurement": "AC50", "setting": "[9]", "result": "3.53 µM (active)"}, {"measurement": "EC50", "setting": "[10]", "result": "595 nM (active)"}, {"measurement": "EC50", "setting": "[11]", "result": "774 nM (active)"}, {"measurement": "AC50", "setting": "[12]", "result": "1.18 µM (active)"}, {"measurement": "AC50", "setting": "H4 [13]", "result": "456 nM (active)"}, {"measurement": "AC50", "setting": "[14]", "result": "5.38 µM (active)"}, {"measurement": "AC50", "setting": "[15]", "result": "1.37 µM (active)"}, {"measurement": "IC50", "setting": "[16]", "result": "> 39.8 µM (not active)"}, {"measurement": "EC50", "setting": "[17]", "result": "< 100 nM (active)"}, {"measurement": "EC50", "setting": "[18]", "result": "< 100 nM (active)"}, {"measurement": "EC50", "setting": "cells", "result": "794 nM (active)"}]}, {"smiles": "CCOC(=O)c1c(-c2ccc(-c3ccccc3)cc2)csc1NC(=O)CNCCN(C)C", "values": [{"measurement": "AC50", "setting": "[19]", "result": "17.1 µM (active)"}, {"measurement": "AC50", "setting": "[20]", "result": "13.3 µM (active)"}, {"measurement": "AC50", "setting": "[21]", "result": "16.5 µM (active)"}]}, {"smiles": "O=C(CCN1C(=O)C2C3CCC(C3)C2C1=O)Nc1ccccc1C(F)(F)F", "note": "(stereo not given)", "values": [{"measurement": "EC50", "setting": "[22]", "result": "> 67.6 µM (inactive)"}, {"measurement": "IC50", "setting": "[23]", "result": "> 67.6 µM (inactive)"}]}, {"smiles": "Cc1cccc(S(=O)(=O)N2C[C@@H](O)COC[C@@H]3O[C@@H](CC(=O)Nc4ccc(-c5ccccc5)cc4)CC[C@H]32)c1", "values": [{"measurement": "AC50", "setting": "Paired box protein Pax-8", "result": "10.7 µM (active)"}, {"measurement": "AC50", "setting": "[24]", "result": "43.4 µM (active)"}, {"measurement": "AC50", "setting": "[25]", "result": "23.2 µM (active)"}, {"measurement": "AC50", "setting": "[26]", "result": "53.1 µM (active)"}]}, {"smiles": "COc1ccccc1C#Cc1ccc([C@H]2[C@H](C#N)N(C(=O)C3CCC3)[C@H]2CO)cc1", "values": [{"measurement": "AC50", "setting": "[27]", "result": "32.8 µM (active)"}, {"measurement": "AC50", "setting": "Paired box protein Pax-8", "result": "5.55 µM (active)"}, {"measurement": "AC50", "setting": "[24]", "result": "12.6 µM (active)"}, {"measurement": "AC50", "setting": "[28]", "result": "56.5 µM (active)"}, {"measurement": "AC50", "setting": "[26]", "result": "23.4 µM (active)"}]}, {"smiles": "C[C@@H]1CN(C)C(=O)c2cccc(NC(=O)c3ccncc3)c2O[C@H]1CN(C)Cc1ccc(Oc2ccccc2)cc1", "values": [{"measurement": "AC50", "setting": "[29]", "result": "38.1 nM (active)"}, {"measurement": "IC50", "setting": "[30]", "result": "10 µM (inconclusive)"}, {"measurement": "AC50", "setting": "[31]", "result": "5.06 nM (active)"}]}]}
